Measured values: patent publication US9109004B2, “Progesterone receptor antagonists” (Bayer Intellectual Property GmbH, priority 2010, dated 2015)

Key:
[1] = Metabolic stability in human liver microsomes (HLM); type: in vitro ADME; details: from HLM half-life, well-stirred model, phase I reactions; 1 μM test compound
Description: Metabolic stability of 4-[(11β,17β)-17-hydroxy-3-oxo-17-(pentafluoro-ethyl)estra-4,9-dien-11-yl]benzamide and 4′-[(11β,17β)-17-hydroxy-3-oxo-17-(pentafluoro-ethyl)estra-4,9-dien-11-yl]biphenyl-4-carboxamide in human liver microsomes (HLM) Isolated human liver microsomes (HLM) were used for assessing the metabolic stability of compounds of general formula I. The incubations were carried out with 2.4 ml HLM solution (0.5 mg/ml protein content), 30 μl of the test compound (final concentration 1 μM) and 0.6 ml of the cofactor mixture (=NADPH-generating system of 3 IU glucose-6-phosphate dehydrogenase, 14.6 mg glucose-6-phosphate, 1.2 mg NADP) at 37° C. in 100 mM phosphate buffer at pH 7.4. Samples are taken at 6 time points (2-60 min), precipitated with an equal volume of methanol, and the recovery of the test substances used in the supernatant is determined by LC-MS/MS analysis. The intrinsic clearance of the substance in the liver microsome assay can be calculated from the value found for the half-life of substance breakdown. Using this, on the basis of various physiological characteristics according to the well-stirred model it is possible to predict a (metabolic) in-vivo clearance with respect to phase I reactions.

pregnant rats = experiment: Test as abortifacient in female rats (termination of early pregnancy); type: in vivo, rat; details: d5-d7 p.c., autopsy d9 p.c.
Description: Test as Abortifacient in Female Rats
The antagonistic action of the compounds according to the invention was tested on pregnant rats (6 rats per group) on day 5 to 7 post coitum in conventional conditions of husbandry and feeding.
After successful mating, the pregnant animals (presence of sperm in the vaginal smear on day 1 of pregnancy=d1 p.c.) were randomized and were divided into the treatment group and the control group. The animals then received, subcutaneously or orally, in each case 0.15; 0.5; 1.5 or 5 mg/kg of the test compound or 1.0 ml/kg of vehicle (benzyl benzoate/castor oil: 1+4 [v/v]) daily from day 5 to day 7 (d5-d7 p.c.).
Autopsy was carried out on day 9 (d9 p.c.). For characterization of progesterone-receptor-antagonistic action, the uterus was investigated for the presence of nidation sites. Complete absence, but also the presence of pathological, haemorrhagic or otherwise abnormal nidation sites on day 9 (d9 p.c.) was assessed as abortion.

[2] = target: T1, human progesterone receptor A (Homo sapiens, UniProt P06401); experiment: Progesterone-receptor-antagonistic action in stably transfected SK-N-MC cells, MTV-LUC reporter (PR-A); type: cell-based; details: antagonistic potency vs 0.1 nmol/l promegestone, 24 hours, luciferase
T1 construct: expressed in transfected cells; host or cells: SK-N-MC human neuroblastoma cells, stably transfected
T1 sequence (P06401 1-769 isoform P06401-2): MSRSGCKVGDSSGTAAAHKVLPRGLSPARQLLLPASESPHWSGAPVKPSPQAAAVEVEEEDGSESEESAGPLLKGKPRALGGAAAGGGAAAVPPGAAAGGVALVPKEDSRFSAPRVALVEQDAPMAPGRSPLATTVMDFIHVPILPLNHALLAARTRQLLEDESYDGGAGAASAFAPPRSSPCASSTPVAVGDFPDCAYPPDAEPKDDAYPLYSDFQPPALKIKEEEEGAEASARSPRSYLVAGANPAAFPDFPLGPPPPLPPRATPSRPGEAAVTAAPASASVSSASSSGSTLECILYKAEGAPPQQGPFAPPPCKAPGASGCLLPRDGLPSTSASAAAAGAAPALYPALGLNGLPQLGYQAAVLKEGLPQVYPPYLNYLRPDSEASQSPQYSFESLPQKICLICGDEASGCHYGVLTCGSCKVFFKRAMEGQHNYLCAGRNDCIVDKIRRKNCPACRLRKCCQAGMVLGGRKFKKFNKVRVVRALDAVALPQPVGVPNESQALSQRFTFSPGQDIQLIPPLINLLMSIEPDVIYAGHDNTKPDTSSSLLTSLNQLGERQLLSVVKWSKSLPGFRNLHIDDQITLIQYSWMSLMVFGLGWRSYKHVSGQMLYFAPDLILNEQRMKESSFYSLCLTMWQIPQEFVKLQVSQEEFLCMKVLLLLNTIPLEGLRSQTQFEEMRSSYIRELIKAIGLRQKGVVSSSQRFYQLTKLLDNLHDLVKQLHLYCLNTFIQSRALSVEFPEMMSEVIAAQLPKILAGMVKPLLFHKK
How it was run: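 SK-N-MC neuroblastoma cells stably expressing human PR-B or PR-A plus MMTV-LUC reporter, treated 24 h with 0.1 nmol/l promegestone plus test compound at 0.01 nmol/l–1 μmol/l. Luciferase in lysates read as RLU; values as % efficacy and IC50.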

(metabolic) in-vivo clearance in humans predicted [1]: 3.5 mL/min/kg | IC50 [2]: 0.01 nM
Structure (SMILES): C[C@]12C[C@H](c3ccc(-c4ccc(C(N)=O)cc4)cc3)C3=C4CCC(=O)C=C4CC[C@H]3[C@@H]1CC[C@@]2(O)C(F)(F)C(F)(F)F [Example 79, 4′-[(11β,17β)-17-Hydroxy-3-oxo-17-(pentafluoroethyl)estra-4,9-dien-11-yl]biphenyl-4-carboxamide]
Abortion rate (pregnant rats; daily dose 0.5 mg/kg p.o.): 100% | Abortion rate (pregnant rats; daily dose 1.5 mg/kg p.o.): 100% | Abortion rate (pregnant rats; daily dose 5.0 mg/kg p.o.): 100%
